Results taken from the supplement of paper PMC11451515.

Assays:
Conditions in all cases: 48 h
NOMO1 [1] = assay: cell viability relative to DMSO control; higher = less cytotoxic
In short: (§1)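 Viability is a per-plate percentage relative to DMSO wells, with cell-free wells as background. CellTiter-Glo One luminescence was read after 48 h at 37°C on 1536-well plates (5 μl) of NOMO1 or SEM (500 cells/well) or P12-Ichikawa (1000 cells/well) leukemia cells. The cells had been adapted for at least four passages in each medium and pin-dosed with library compounds in DMSO from 47 μM to 0.79 nM in 11 threefold steps.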

P12-Ichikawa [2] = assay: as above
In short: as §1

SEM cells [3] = assay: as above
In short: as §1

NOMO1 [4] = assay: AUC of viability dose-response curve (% viability x log10 dose units); higher = less sensitive
In short: (§2)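 Seeding of medium-adapted leukemia cells was at 500 or 1000 cells/well in 1536-well plates, followed by 48 h at 37°C with library compounds in DMSO at 11 threefold doses from 47 μM to 0.79 nM. CellTiter-Glo One luminescence was normalised per plate to DMSO and cell-free wells and fitted as a four-parameter log-logistic function of log10 dose. Area under the curve was integrated by trapezoidal rule, with curves exceeding full viability scaled and curves failing quality control removed.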

P12-Ichikawa [5] = assay: as above
In short: as §2

SEM cells [6] = assay: as above
In short: as §2

COc1cc2c(cc1OC)C1CC(=O)C(CC(C)C)CN1CC2 (configuration not stated)
cell viability [%]
Conditions | NOMO1 [1] | P12-Ichikawa [2] | SEM cells [3]
HPLM + 10% dialyzed FBS, 0.000781 µM | – | 122 | 84.5
HPLM + 10% dialyzed FBS, 0.00234 µM | – | 122 | 116
HPLM + 10% dialyzed FBS, 0.00702 µM | – | 116 | 99.6
HPLM + 10% dialyzed FBS, 0.0211 µM | – | 118 | 107
HPLM + 10% dialyzed FBS, 0.0632 µM | – | 113 | 98.4
HPLM + 10% dialyzed FBS, 0.19 µM | – | 127 | 100
HPLM + 10% dialyzed FBS, 0.569 µM | – | 117 | 118
HPLM + 10% dialyzed FBS, 1.71 µM | – | 122 | 110
HPLM + 10% dialyzed FBS, 5.12 µM | – | 116 | 112
HPLM + 10% dialyzed FBS, 15.4 µM | – | 114 | 103
HPLM + 10% dialyzed FBS, 46.1 µM | – | 106 | 96.5
RPMI 5 mM glucose + 10% FBS, 0.000781 µM | 116 | – | 116
RPMI 5 mM glucose + 10% FBS, 0.00234 µM | 106 | – | 114
RPMI 5 mM glucose + 10% FBS, 0.00702 µM | 106 | – | 110
RPMI 5 mM glucose + 10% FBS, 0.0211 µM | 104 | – | 118
RPMI 5 mM glucose + 10% FBS, 0.0632 µM | 134 | – | 103
RPMI 5 mM glucose + 10% FBS, 0.19 µM | 117 | – | 110
RPMI 5 mM glucose + 10% FBS, 0.569 µM | 116 | – | 114
RPMI 5 mM glucose + 10% FBS, 1.71 µM | 104 | – | 118
RPMI 5 mM glucose + 10% FBS, 5.12 µM | 113 | – | 118
RPMI 5 mM glucose + 10% FBS, 15.4 µM | 113 | – | 116
RPMI 5 mM glucose + 10% FBS, 46.1 µM | 103 | – | 109
RPMI 5 mM glucose + 10% dialyzed FBS, 0.000781 µM | 117 | 117 | 120
RPMI 5 mM glucose + 10% dialyzed FBS, 0.00234 µM | 133 | 119 | 140
RPMI 5 mM glucose + 10% dialyzed FBS, 0.00702 µM | 109 | 121 | 113
RPMI 5 mM glucose + 10% dialyzed FBS, 0.0211 µM | 115 | 124 | 117
RPMI 5 mM glucose + 10% dialyzed FBS, 0.0632 µM | 148 | 122 | 97.1
RPMI 5 mM glucose + 10% dialyzed FBS, 0.19 µM | 124 | 125 | 129
RPMI 5 mM glucose + 10% dialyzed FBS, 0.569 µM | 128 | 118 | 111
RPMI 5 mM glucose + 10% dialyzed FBS, 1.71 µM | 121 | 125 | 129
RPMI 5 mM glucose + 10% dialyzed FBS, 5.12 µM | 115 | 109 | 124
RPMI 5 mM glucose + 10% dialyzed FBS, 15.4 µM | 110 | 115 | 119
RPMI 5 mM glucose + 10% dialyzed FBS, 46.1 µM | 125 | 102 | 103

AUC of viability dose-response curve
Conditions | NOMO1 [4] | P12-Ichikawa [5] | SEM cells [6]
HPLM + 10% dialyzed FBS | 448 | 459 | 471
RPMI 5 mM glucose + 10% FBS | 470 | 459 | 476
RPMI 5 mM glucose + 10% dialyzed FBS | 469 | 466 | 459

COc1cnc(N[S+](=O)([O-])c2ccc(N)cc2)nc1
cell viability [%]
Conditions | NOMO1 [1] | P12-Ichikawa [2] | SEM cells [3]
HPLM + 10% dialyzed FBS, 0.000781 µM | 111 | 107 | 75.9
HPLM + 10% dialyzed FBS, 0.00234 µM | 114 | 118 | 96.2
HPLM + 10% dialyzed FBS, 0.00702 µM | 106 | 113 | 85.7
HPLM + 10% dialyzed FBS, 0.0211 µM | 125 | 119 | 86.1
HPLM + 10% dialyzed FBS, 0.0632 µM | 125 | 122 | 93.2
HPLM + 10% dialyzed FBS, 0.19 µM | 119 | 125 | 94.6
HPLM + 10% dialyzed FBS, 0.569 µM | 114 | 134 | 91.9
HPLM + 10% dialyzed FBS, 1.71 µM | 130 | 126 | 93.1
HPLM + 10% dialyzed FBS, 5.12 µM | 114 | 117 | 109
HPLM + 10% dialyzed FBS, 15.4 µM | 84.5 | 90.1 | 102
HPLM + 10% dialyzed FBS, 46.1 µM | 31.1 | 45.1 | 103
RPMI 5 mM glucose + 10% FBS, 0.000781 µM | 122 | 101 | 94.9
RPMI 5 mM glucose + 10% FBS, 0.00234 µM | 118 | 109 | 97.4
RPMI 5 mM glucose + 10% FBS, 0.00702 µM | 114 | 109 | 99.7
RPMI 5 mM glucose + 10% FBS, 0.0211 µM | 112 | 117 | 104
RPMI 5 mM glucose + 10% FBS, 0.0632 µM | 124 | 118 | 101
RPMI 5 mM glucose + 10% FBS, 0.19 µM | 131 | 118 | 107
RPMI 5 mM glucose + 10% FBS, 0.569 µM | 138 | 126 | 113
RPMI 5 mM glucose + 10% FBS, 1.71 µM | 128 | 130 | 97.3
RPMI 5 mM glucose + 10% FBS, 5.12 µM | 125 | 117 | 107
RPMI 5 mM glucose + 10% FBS, 15.4 µM | 110 | 102 | 102
RPMI 5 mM glucose + 10% FBS, 46.1 µM | 48.2 | 59.2 | 105
RPMI 5 mM glucose + 10% dialyzed FBS, 0.000781 µM | 110 | 111 | 75.9
RPMI 5 mM glucose + 10% dialyzed FBS, 0.00234 µM | 118 | 108 | 91.6
RPMI 5 mM glucose + 10% dialyzed FBS, 0.00702 µM | 123 | 122 | 106
RPMI 5 mM glucose + 10% dialyzed FBS, 0.0211 µM | 125 | 119 | 104
RPMI 5 mM glucose + 10% dialyzed FBS, 0.0632 µM | 121 | 127 | 93.7
RPMI 5 mM glucose + 10% dialyzed FBS, 0.19 µM | 127 | 118 | 107
RPMI 5 mM glucose + 10% dialyzed FBS, 0.569 µM | 114 | 128 | 108
RPMI 5 mM glucose + 10% dialyzed FBS, 1.71 µM | 125 | 124 | 115
RPMI 5 mM glucose + 10% dialyzed FBS, 5.12 µM | 98.5 | 119 | 117
RPMI 5 mM glucose + 10% dialyzed FBS, 15.4 µM | 97.5 | 104 | 106
RPMI 5 mM glucose + 10% dialyzed FBS, 46.1 µM | 63.5 | 67 | 118

AUC of viability dose-response curve
Conditions | NOMO1 [4] | P12-Ichikawa [5] | SEM cells [6]
HPLM + 10% dialyzed FBS | 445 | 449 | 428
RPMI 5 mM glucose + 10% FBS | 457 | 459 | 459
RPMI 5 mM glucose + 10% dialyzed FBS | 448 | 460 | 443

Cc1cn2c(-c3cn[nH]c3)cnc2c(Nc2ccc(C(=O)N3CCNCC3)cc2F)n1
cell viability [%]
Conditions | NOMO1 [1] | P12-Ichikawa [2] | SEM cells [3]
HPLM + 10% dialyzed FBS, 0.000781 µM | 109 | 98.2 | 105
HPLM + 10% dialyzed FBS, 0.00234 µM | 102 | 104 | 106
HPLM + 10% dialyzed FBS, 0.00702 µM | 114 | 100 | 119
HPLM + 10% dialyzed FBS, 0.0211 µM | 107 | 99.8 | 103
HPLM + 10% dialyzed FBS, 0.0632 µM | 96.5 | 101 | 109
HPLM + 10% dialyzed FBS, 0.19 µM | 100 | 103 | 105
HPLM + 10% dialyzed FBS, 0.569 µM | 112 | 104 | 107
HPLM + 10% dialyzed FBS, 1.71 µM | 82.7 | 97.7 | 108
HPLM + 10% dialyzed FBS, 5.12 µM | 91.2 | 91.9 | 87.8
HPLM + 10% dialyzed FBS, 15.4 µM | 70 | 73.4 | 45.9
HPLM + 10% dialyzed FBS, 46.1 µM | 34 | 43.5 | 17
RPMI 5 mM glucose + 10% FBS, 0.000781 µM | 105 | 105 | 98.7
RPMI 5 mM glucose + 10% FBS, 0.00234 µM | 91.6 | 98.3 | 99.8
RPMI 5 mM glucose + 10% FBS, 0.00702 µM | 101 | 95.7 | 107
RPMI 5 mM glucose + 10% FBS, 0.0211 µM | 88 | 91.8 | 98.5
RPMI 5 mM glucose + 10% FBS, 0.0632 µM | 88.3 | 103 | 112
RPMI 5 mM glucose + 10% FBS, 0.19 µM | 88 | 96.8 | 114
RPMI 5 mM glucose + 10% FBS, 0.569 µM | 89.2 | 95.1 | 96.7
RPMI 5 mM glucose + 10% FBS, 1.71 µM | 85.3 | 96.9 | 109
RPMI 5 mM glucose + 10% FBS, 5.12 µM | 86.2 | 90.4 | 90.6
RPMI 5 mM glucose + 10% FBS, 15.4 µM | 78.7 | 74.6 | 48.3
RPMI 5 mM glucose + 10% FBS, 46.1 µM | 36.1 | 49.2 | 11.8
RPMI 5 mM glucose + 10% dialyzed FBS, 0.000781 µM | 89.2 | 104 | 107
RPMI 5 mM glucose + 10% dialyzed FBS, 0.00234 µM | 93 | 105 | 104
RPMI 5 mM glucose + 10% dialyzed FBS, 0.00702 µM | 93.8 | 102 | 105
RPMI 5 mM glucose + 10% dialyzed FBS, 0.0211 µM | 98.1 | 99.5 | 99.5
RPMI 5 mM glucose + 10% dialyzed FBS, 0.0632 µM | 88.7 | 105 | 122
RPMI 5 mM glucose + 10% dialyzed FBS, 0.19 µM | 98.8 | 107 | 102
RPMI 5 mM glucose + 10% dialyzed FBS, 0.569 µM | 92.5 | 109 | 114
RPMI 5 mM glucose + 10% dialyzed FBS, 1.71 µM | 93.1 | 95.6 | 98.2
RPMI 5 mM glucose + 10% dialyzed FBS, 5.12 µM | 80.5 | 94.4 | 91.7
RPMI 5 mM glucose + 10% dialyzed FBS, 15.4 µM | 62.5 | 65.3 | 49.9
RPMI 5 mM glucose + 10% dialyzed FBS, 46.1 µM | 29.9 | 42.5 | 9.99

AUC of viability dose-response curve
Conditions | NOMO1 [4] | P12-Ichikawa [5] | SEM cells [6]
HPLM + 10% dialyzed FBS | 430 | 444 | 419
RPMI 5 mM glucose + 10% FBS | 417 | 440 | 424
RPMI 5 mM glucose + 10% dialyzed FBS | 409 | 439 | 421
